Consider five molecules from patent US4515785A, “Neem bark extracts” (priority 1980, dated 1985).

In assay [1] the test system is sarcoma 180 solid tumor. Put plainly: Effects on sarcoma 180 solid tumor (Test V). It is filed as in vivo, mouse (ICR). The following applies: Table IV; for T/C (tumor weight ratio treated/control): 15th-21st day. As for the experimental part: Test materials were prepared in the same manner as in Test IV under (1).
A cell suspension containing 1×10^8 cells per ml. was prepared in the same way as in Test IV under (2). Four week old-ICR mice was innoculated subcutaneously on the back with 0.1 ml. of the suspenstion by means of a syringe.
As in Test IV under (3), a group of 6 animals was used for each concentration of each test material.
Grown tumor tissue was resected on the 15th-21st day of the tumor cell transplantation and weighed. An average for the group of 6 animals was taken for the evaluation. The effect was evaluated on the basis of ratio of the average weight for the treated animals to that of the control animals. […] Ratios (T/C) of 100-71% were rated ineffective (-), of 70-51% plus 1 (+), of 50-21% plus 2 (++), and of 20-0% plus 3 (+++).

For assay [2], the system named is sarcoma 180 ascites tumor. Put plainly: Effects on sarcoma 180 ascites tumor (Test IV). It is filed as in vivo, mouse (ICR). The following applies: Table III; for T/C (TPCV ratio treated/control): 4 days, 7th day. As for the experimental part: A portion of each of the extraction fractions was suspended or dissolved in 0.5% suspension of carboxymethylcellulose (CMC) in a phosphate buffered saline solution (PBS commercially available from GIBCO Laboratories, containing ca. 9.5 mM phosphate) to a predetermined concentration.
Mouse sarcoma 180 tumor cells which have been subcultivated intraperitoneally in ICR mice were drawn from the mouse together with the ascites and diluted with physiological saline solution to a cell count of 10^8 per ml. The tumor cell suspension thus prepared was transplanted by means of a syringe intraperitoneally into 4 week-old male ICR mice at a dose of 0.1 ml. Consequently, the cell count transplanted per mouse was 1×10^7.
The test material as prepared above was intraperitoneally administered at a dose of 0.1 ml. per mouse for 4 days once a day from the next day of the transplantation of mouse sarcoma 180 tumor cells. A group of 6 mice was employed for each concentration of each test material. […] As a control was administered the CMC-containing PBS as described above only in the same way as above. The dose is expressed as weight per kg. bodyweight of mouse.
On the 7th day of transplantation of the tumor cells the bodyweight of each mouse was measured (X). Then, ascites was thoroughly drawn from the mouse, followed by measurement of the bodyweight (Y). X-Y is taken as the amount of ascites.
The drawn ascites was the introduced into a hematocrit tube and then centrifuged at 15,000 G for 5 minutes using a hematocrit rotor at a low temperature. There was thus made determination of the ascitocrit value, that is, proportion of the cells present in the ascites which corresponded to the hematocrit value in hematology. The value multiplied by volume of the ascites gives the volume of the cells present in the ascites. This is designated as total packed cell volume (TPCV).
Effect on the tumor was rated ineffective (-) when the TPCV ratio of the treated to the control (T/C) was 100-66%, plus 1 (+) when it was 65-41%, plus 2 (++) when it was 40-11%, and plus 3 (+++) when it was 10-0%.

The subject of assay [3] is mouse L-5178Y cells. Put plainly: Effects on mouse L-5178Y cells (Test III). In kind it is cell-based. As to conditions: 2 days. As for the experimental part: A medium containing 1×10^5 cells/ml. was prepared using mouse L-5178Y cells cultivated on RPMI-1640 medium containing 10% fetal bovine serum for 3 days. The medium was placed in a 96-well U-type microplate in an amount of 50 μl. per well.
A portion of the test material, which was one of the extracts according to the invention described in the above examples, was dissolved in the medium to a final concentration in the medium as shown in Table II below. The amount of the solution per well was 60 μl. The test material thus prepared was incubated in a carbon-dioxide incubator at 37° C. for 2 days. After completion of the incubation, the cells were collected and counted well by well, and the cell counts were compared with cell count of the control which contained no test material. The cell could of the control was approximately 8.6×10^5 /ml. For activity comparison's sake, the same test was done with mitomycin C (MMC) or bleomycin (BLM). In the table below, T/C represents the ratio of count of the cells treated with the test material to that with no test material added. ID50 is the concentration of the test material required for decreasing concentration of the cells to 1/2 that of the control.
The neem extracts produced in Examples 5-7 above were tested for effects on mouse L-5178Y cells, sarcoma 180 ascites and solid tumors according to the methods described in Tests II-IV.

≈ marks a conversion by molar mass, not a printed value. Where “and” joins values, the source holds several entries; their conditions need not be identical. Equal values may be shown once. *1 amine or outer side, *2 acyl side, *3 side chain or, on linkers, in order; H or OH if unused. Where a SMILES comes first, the peptide text is derived from it. Bridges are numbered along the chain shown (N, C = ends). Roman numbers before positions name the chains, in order. [ ]: non-standard residue; d: D form. Actinocin(9to1) = Cc1c2oc3c(C)ccc(C(=O)[*:1])c3nc-2c(C(=O)[*:2])c(N)c1=O; NMeV = CN[C@H](C(=O)O)C(C)C; Sar = CNCC(=O)O

With `O=c1[nH]cc(F)c(=O)[nH]1` [Example 5-Fu, 5-fluorouracil], in assay [1] (20 mg./kg.), the Rating entry is given as “+ (of 70-51% plus 1 (+))” and the “T/C (tumor weight ratio treated/control)” value is recorded as 47.8%. Besides, the Rating entry in assay [2] (20 mg./kg.) is listed as “+++ (plus 3 (+++) when it was 10-0%)”. Also, the “T/C (TPCV ratio treated/control)” value in assay [2] (20 mg./kg. i.p. once a day) is 0%.
Consider `Cc1c2oc3c(C)ccc(C(=O)N[C@@H]4C(=O)N[C@H](C(C)C)C(=O)N5CCC[C@H]5C(=O)N(C)CC(=O)N(C)[C@@H](C(C)C)C(=O)O[C@@H]4C)c3nc-2c(C(=O)N[C@@H]2C(=O)N[C@H](C(C)C)C(=O)N3CCC[C@H]3C(=O)N(C)CC(=O)N(C)[C@@H](C(C)C)C(=O)O[C@@H]2C)c(N)c1=O` [ACD, actinomycin D] (I: T[dV]P[Sar][NMeV] / II: T[dV]P[Sar][NMeV]; ester I:1-I:C, II:1-II:C; linker I:N-II:N via Actinocin(9to1)), for which the Rating result in assay [2] (0.1 mg./kg.) is “+++ (plus 3 (+++) when it was 10-0%)”. Further, the “T/C (TPCV ratio treated/control)” value in assay [2] (0.1 mg./kg. i.p. once a day) is given as 0%.
bleomycin [BLM]: in assay [1] (10 mg./kg.), the “T/C (tumor weight ratio treated/control)” value is 43.5% and 52.3%. For the same molecule, the results for the “T/C (cell count treated / no test material)” value in assay [3] (5 μg./ml.), in assay [3] (10 μg./ml.) and in assay [3] (100 μg./ml.) were 57.1%, 46.1% and 8.8%, respectively. Besides, the ID50 in assay [3] (Table II, concentration decreasing cells to 1/2 of control) turned out to be 7.8 µg/mL. In assay [2] (10 mg./kg.), the Rating entry is “+++ (plus 3 (+++) when it was 10-0%)”. In addition, the “T/C (TPCV ratio treated/control)” value in assay [2] (10 mg./kg. i.p. once a day) turned out to be 0%.
With `CO[C@@]12[C@H](COC(N)=O)C3=C(C(=O)C(C)=C(N)C3=O)N1C[C@@H]1N[C@@H]12` [MMC, mitomycin C], the Rating result is “- (Ratios (T/C) of 100-71% were rated ineffective (-))” in assay [1] (0.5 mg./kg.), “+++ (plus 3 (+++) when it was 10-0%)” in assay [2] (0.5 mg./kg.) and “+++ (plus 3 (+++) when it was 10-0%)” in assay [2] (1.5 mg./kg.). Also, the “T/C (tumor weight ratio treated/control)” value is 71.0% in assay [1] (0.5 mg./kg.); 32.5% and 50.2% in assay [1] (1.5 mg./kg.). Besides, the activity at 0.1 µg/mL in assay [3] (Mus musculus, L5178Y, 48 h, 0.1 μg./ml., read-out: T/C (cell count treated / no test material)) was 47.9%. Moreover, in assay [3] (Mus musculus, L5178Y, 48 h, 0.3 μg./ml., read-out: T/C (cell count treated / no test material)), the activity at 0.3 µg/mL was 24.7%. Besides, the activity at 1 µg/mL in assay [3] (Mus musculus, L5178Y, 48 h, 1.0 μg./ml., read-out: T/C (cell count treated / no test material)) stood at 13.4%. Further, the IC50 in assay [3] (Mus musculus, L5178Y, 48 h, Table II, concentration decreasing cells to 1/2 of control, read-out: ID50 (the source's name)) is 0.09 µg/mL (≈ 0.269 µM). Also, the “T/C (TPCV ratio treated/control)” value in assay [2] (0.5 mg./kg. i.p. once a day) and in assay [2] (1.5 mg./kg. i.p. once a day) was 0% each time.
Turning to `O=P1(N(CCCl)CCCl)NCCCO1` (centres unmarked) [CYP, cyclophosphamide], the Rating result in assay [1] (33 mg./kg.) is given as “+++ (of 20-0% plus 3 (+++))”; in assay [1] (67 mg./kg.) it was “+++ (of 20-0% plus 3 (+++))”; in assay [2] (33 mg./kg.), “+++ (plus 3 (+++) when it was 10-0%)”; in assay [2] (67 mg./kg.), “+++ (plus 3 (+++) when it was 10-0%)”. For the same molecule, the “T/C (tumor weight ratio treated/control)” value in assay [1] (33 mg./kg.) and in assay [1] (67 mg./kg.) was 0% each time. The “T/C (TPCV ratio treated/control)” value in assay [2] (33 mg./kg. i.p. once a day) and in assay [2] (67 mg./kg. i.p. once a day) was 0% in each case.
